From patent publication US7122360B1, “Polypeptides, polynucleotides and uses thereof” (University of Dundee, priority 1998, dated 2006)
Entries after “also recorded” stand apart in the source; their conditions may differ.

Key:
CREB and ATF1 = CREB and ATF1 phosphorylation in RAW 264 macrophages, immunoblot; assay type: cell-based, mouse; settings: for LPS-induced phosphorylation of CREB and ATF1: LPS 100 ng/ml 1 h
Procedure: FIG. 15. […] After cell lysis aliquots were assayed for either MSK1 (A), MAPKAP-K1 (B), MAPKAP-K2 (C) after their immunoprecipitation from the lysates or immunoblotted for phosphorylation of CREB and ATF1 (D).
FIG. 19. […] (A) Macrophages were stimulated for the times indicated with LPS (100 ng/ml). After cell lysis, aliquots of the lysate (30 Tg protein) were denatured in SDS, electrophoresed on a 10% polyacrylamide gel, transferred to a nitrocellulose membrane, and immunoblotted with a phospho-CREB antibody. The positions of the molecular mass markers glycogen phosphorylase (97 kDa), bovine serum albumin (66 kDa), ovalbumin (43 kDa) and carbonic anhydrase (30 kDa) are indicated. […] (B) As in A, except that the macrophages were incubated for 1 h in the presence or absence of 50 TM PD 98059 and/or 10 TM SB 203580 (SB), or 5 TM Ro 318220 (Ro), then stimulated for 1 h in the absence or presence of 100 ng/ml LPS and in the continued presence or absence of the inhibitors.
(§1) FIG. 22. […] (A) Macrophages were stimulated for 1 h with LPS (100 ng/ml) or for 15 min with forskolin (F) (20 TM) plus IBMX (10 TM). After cell lysis, aliquots of the lysate (30 Tg protein) were immunoblotted with a phospho-specific CREB antibody (see legend to FIG. 19 for details and molecular mass markers). (B) Macrophages were stimulated for 3 h with LPS (100 ng/ml), or forskolin (20 TM) plus IBMX (10 TM), and immunoblotting performed with a specific COX-2 antibody (materials & methods section). The marker proteins are as in FIG. 19.
(§2) Cell culture and stimulation. RAW 264 macrophages were maintained in a 95% air/5% CO2 atmosphere in Dulbecco's modified Eagle's medium (DMEM) plus 10% (v/v) heat-inactivated foetal calf serum, 100 U/ml penicillin, […] streptomycin. The day before stimulation, the macrophages were plated at a density of 2×10^6 cells per 6 cm plate and 2 h before stimulation, the medium removed and replaced with 2 ml of DMEM. Where indicated, […] (10 TM) and/or PD 98059 (50 Tm), or U0126 (10 TM) or Ro 318220 (5 TM), were added 1 h before stimulation.
(§3) Immunoblotting. For immunoblotting of CREB, nuclear cell extracts were prepared as described and immunoblotting performed using a phospho-specific antibody recognising CREB phosphorylated on Ser 133 and ATF1 phosphorylated on Ser 63. For immunoblotting of COX-2, cell lysate (30 Tg protein) was denatured in SDS, electrophoresed on 10% polyacrylamide gel, transferred to a nitrocellulose membrane, and immunoblotted with anti-COX-2 antibody (1.0 mg/ml). Detection of phosphorylated CREB and ATF1 and COX-2 was performed using the enhanced chemiluminescence reagent (ECL).

CREB = assay: Arsenite and FGF-induced phosphorylation of CREB in SK-N-MC cells; assay type: cell-based; settings: for FGF-induced phosphorylation of CREB: 50 μM PD 98059, 10 μM SB 203580, FGF 50 ng/ml 15 min
Procedure: (§4) FIG. 14. […] After cell lysis aliquots were assayed for either MSK1 (A), MAPKAP-K1 (B), MAPKAP-K2 (C) after their immunoprecipitation from the lysates or immunoblotted for phosphorylation of CREB and ATF1 (D).
Immunoblotting for phosphorylated CREB and ATF1. Cell extracts were prepared and immunoblotting of these carried out as described (Tan et al., 1996) using a phosphospecific antibody recognizing CREB phosphorylated on Ser 133 and ATF1 phosphorylated on Ser63 purchased from UBI (Lake Placid, USA). Detection of phosphorylated CREB and ATF1 proteins was performed using the enhanced chemiluminescence reagent (Amersham).

MSK1 = assay: Activation of endogenous MSK1 in 293 cells (immunoprecipitation and Crosstide assay); assay type: cell-based, human; settings: for activation of MSK1 by EGF and TPA: 50 μM PD 98059 or 10 μM SB 203580, 1 h
COX-2 protein = assay: Induction of COX-2 protein in RAW 264 macrophages, immunoblot; assay type: cell-based, mouse; settings: LPS 100 ng/ml 4 h, 50 TM PD 98059, 10 TM SB 203580, 5 TM Ro 318220
Procedure: FIG. 20. […] (A) Macrophages were stimulated for the times indicated with LPS (100 ng/ml).
as §1, §2, §3

MAPKAP-K1 = assay: NGF-induced activation of MAPKAP-K1 in PC12 cells; settings: 50 μM PD 98059, 10 μM SB 203580
HSP27 = assay: UV induced phosphorylation of HSP27 in 293 cells; assay type: cell-based, human; settings: UV 200 J/m^2
Procedure: FIG. 9. Effect of Ro 318220 on the activity of MSK1. (A) Effect of Ro 318220 on GST-MSK1 (closed circles), mixed PKC isoforms (open circles) GST-MAPKAP-K1b and MAPKAP-K2 (open triangles) in vitro. […] The error for each point is ±10%. […] The cells were lysed MAPKAP-K2 was immunoprecipitated and assayed. […] (C) as above except that 293 cells were incubated for 2 h in 32phosphate (0.1 mCi/ml) before treatment with inhibitors. Cells were then exposed to either UV radiation (200 J/m2) or left untreated (−), incubated for a further 20 min in the continued presence of inhibitors. Following cell lysis, HSP27 was immunoprecipitated from cell extracts (Cuenda et al., 1995) run on a 15% polyacrylamide gel and autoradiographed.

MAPKAP-K2 [1] = assay: Activation of MAPKAP-K2 by TNF in HeLa cells; assay type: cell-based
Description: (§5) Cell Culture, stimulation and cell lysis.

MAPKAP-K2 [2] = assay: Activation of MAPKAP-K2 in SK-N-MC cells; assay type: cell-based; settings: 50 μM PD 98059, 10 μM SB 203580, 5 μM Ro 318220
Procedure: as §4, §5

MSK2 = assay: LPS-induced activation of MSK2 in RAW 264 macrophages; assay type: cell-based, mouse; settings: LPS 100 ng/ml 1 h, 10 μM UO 126, 10 μM SB 203580, 5 TM Ro 318220
[3] = 50 TM PD 98059, 10 TM SB 203580, 5 TM Ro 318220

SMILES	LPS-induced phosphorylation of CREB and ATF1 (CREB and ATF1; [3])	FGF-induced phosphorylation of CREB (CREB)	activation of MSK1 by EGF and TPA (MSK1)	LPS-stimulated induction of COX-2 protein (COX-2 protein)	NGF-induced activation of MAPKAP-K1 (MAPKAP-K1)	forskolin-triggered phosphorylation of CREB and ATF-1, effect of inhibitors (CREB and ATF1; data not shown)	UV induced phosphorylation of HSP27 (HSP27)	phosphorylation of CREB at Ser133 (CREB; sodium arsenite or FGF, 5 μM Ro 318220)	activation of MAPKAP-K2 by TNF (MAPKAP-K2 [1]; 5 μM Ro 318220, data not shown)	activation of MAPKAP-K2 by sodium arsenite and FGF (MAPKAP-K2 [2])	LPS-induced activation of MSK2 (MSK2)	LPS-induced phosphorylation of CREB and ATF1 (CREB and ATF1; 50 TM PD 98059, 10 TM SB 203580, 5 TM Ro 318220, listed as SB203580)	sodium arsenite-induced activation of CREB (CREB; 50 μM PD 98059, 10 μM SB 203580, arsenite 0.5 mM 15 min)	activation of MAPKAP-K2 after 5 min of TNF stimulation (MAPKAP-K2 [1]; 50 μM PD 98059, 10 μM SB 203580)	activation of MSK1 by stressful stimuli (MSK1; sodium arsenite, UV radiation or H2O2, 50 μM PD 98059 or 10 μM SB 203580)
COc1cccc(-c2cc(=O)c3ccccc3o2)c1N [PD 98059]	appear to inhibit; also recorded: partially inhibited	only inhibited slightly; also recorded: did not significantly suppress	largely prevented	partially inhibited	only partially inhibited										
Cn1cc(C2=C(c3cn(CCCSC(=N)N)c4ccccc34)C(=O)NC2=O)c2ccccc21 [Ro 318220]	completely prevents			suppresses		not suppressed	did not significantly affect	largely suppressed	unaffected	does not affect	does not affect				
C[S+]([O-])c1ccc(-c2nc(-c3ccncc3)c(-c3ccc(F)cc3)[nH]2)cc1 (stereo not shown) [SB 203580]	partially inhibited	only inhibited slightly	but not by SB 203580	partially inhibited	unaffected		blocked			completely prevented	only inhibited partially	appear to inhibit	prevented	inhibited	largely inhibited
